ChEMBL document CHEMBL4229536, “In vitro and in vivo pharmacokinetic and pharmacodynamic study of MBRI-001, a deuterium-substituted plinabulin derivative as a potent anti-cancer agent” (Bioorg Med Chem, 2018)

Legend:
[1] = Stability in rat liver microsomes at 50 uM after 90 mins in presence of NADPH by LC-MS/MS analysis; type: ADME, microsome; conditions: read-out: Stability
[2] = Stability in rat liver microsomes at 50 uM after 150 mins in presence of NADPH by LC-MS/MS analysis; type: ADME, microsome; conditions: read-out: Stability
Cytochrome P450 1A2 = target: T1, Cytochrome P450 1A2 (Homo sapiens, UniProt P05177); test: Inhibition of CYP1A2 in human liver microsomes preincubated for 10 mins followed by NADPH addition measured after 10 mins by LC-MS/MS analysis; type: ADME
T1 sequence (P05177 whole entry): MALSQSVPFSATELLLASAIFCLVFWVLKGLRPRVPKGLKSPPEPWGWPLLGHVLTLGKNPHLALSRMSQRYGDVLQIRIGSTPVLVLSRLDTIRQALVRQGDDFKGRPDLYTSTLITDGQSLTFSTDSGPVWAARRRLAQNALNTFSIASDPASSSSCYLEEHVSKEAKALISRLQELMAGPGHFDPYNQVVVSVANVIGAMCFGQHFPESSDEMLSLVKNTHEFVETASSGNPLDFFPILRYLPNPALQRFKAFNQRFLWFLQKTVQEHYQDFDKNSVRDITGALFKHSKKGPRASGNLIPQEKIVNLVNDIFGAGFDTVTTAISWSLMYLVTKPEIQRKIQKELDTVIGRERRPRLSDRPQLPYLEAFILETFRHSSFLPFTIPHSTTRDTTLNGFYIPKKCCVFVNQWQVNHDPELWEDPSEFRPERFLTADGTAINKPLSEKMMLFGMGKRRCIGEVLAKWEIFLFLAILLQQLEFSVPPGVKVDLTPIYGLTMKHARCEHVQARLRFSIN

[3] = Protein binding in Beagle dog plasma at 2 uM after 4 hrs by LC-MS/MS analysis; type: ADME, cell-free, Canis lupus familiaris; conditions: read-out: PPB (converted)
[4] = Apparent volume of distribution in Wistar rat at 8 mg/kg, iv; type: ADME, organism-based; conditions: in vivo, read-out: Vz
Rattus norvegicus = test: Clearance in Wistar rat at 8 mg/kg, iv; type: ADME, organism-based; conditions: in vivo
[5] = Drug uptake in Wistar rat spleen at 6 mg/kg, iv measured after 0.5 hrs; type: ADME, organism-based; conditions: in vivo
[6] = Drug uptake in Wistar rat liver at 6 mg/kg, iv measured after 0.5 hrs; type: ADME, organism-based; conditions: in vivo
[7] = Drug uptake in Wistar rat brain at 6 mg/kg, iv measured after 0.5 hrs; type: ADME, organism-based; conditions: in vivo
[8] = Drug uptake in Wistar rat spleen at 6 mg/kg, iv measured after 1 hr; type: ADME, organism-based; conditions: in vivo
[9] = Drug uptake in Wistar rat kidney at 6 mg/kg, iv measured after 1 hr; type: ADME, organism-based; conditions: in vivo
[10] = Drug uptake in Wistar rat liver at 6 mg/kg, iv measured after 4 hrs; type: ADME, organism-based; conditions: in vivo
[11] = Drug uptake in Wistar rat heart at 6 mg/kg, iv measured after 4 hrs; type: ADME, organism-based; conditions: in vivo
[12] = Drug uptake in Wistar rat large intestine at 6 mg/kg, iv measured after 8 hrs; type: ADME, organism-based; conditions: in vivo
[13] = Drug uptake in Wistar rat lungs at 6 mg/kg, iv measured after 8 hrs; type: ADME, organism-based, Lung; conditions: in vivo
[14] = Drug uptake in Wistar rat heart at 6 mg/kg, iv measured after 8 hrs; type: ADME, organism-based; conditions: in vivo
[15] = Drug uptake in Wistar rat brain at 6 mg/kg, iv measured after 8 hrs; type: ADME, organism-based; conditions: in vivo
[16] = Drug uptake in Wistar rat pancreas at 6 mg/kg, iv measured after 12 hrs; type: ADME, organism-based; conditions: in vivo
[17] = Drug uptake in Wistar rat small intestine at 6 mg/kg, iv measured after 12 hrs; type: ADME, organism-based; conditions: in vivo
[18] = Drug excretion in Wistar rat feces at 4 mg/kg, iv measured after 8 hrs; type: ADME, organism-based; conditions: faeces, read-out: Drug excretion
[19] = Drug excretion in Wistar rat urine at 4 mg/kg, iv measured after 8 hrs; type: ADME, organism-based; conditions: read-out: Drug excretion
Mus musculus = test: Toxicity in nude mouse xenografted with human NCI-H460 cells assessed as body weight at 6 mg/kg, iv administered once in every 2 days for 14 consecutive days (reference value: 20.6 +/- 1.5 g); type: organism-based; conditions: in vivo, 48 h
NCI-H460 [20] = test: Antitumor activity against human NCI-H460 cells xenografted in nude mouse assessed as inhibition of tumor weight at 9 mg/kg, iv administered once in every 2 days for 14 consecutive days relative to control; type: functional; conditions: 48 h
NCI-H460 [21] = test: Antitumor activity against human NCI-H460 cells xenografted in nude mouse assessed as inhibition of tumor volume at 3 mg/kg, iv administered once in every 2 days for 14 consecutive days relative to control; type: functional; conditions: 48 h
NCI-H460 [22] = test: Antitumor activity against human NCI-H460 cells xenografted in nude mouse assessed as inhibition of tumor volume at 3 mg/kg, iv administered once in every 2 days for 14 consecutive days cotreated with 25 mg/kg gefitinib once daily for 14 consecutive days relative to control; type: functional

Structure (SMILES): [2H]/C(c1nc[nH]c1C(C)(C)C)=c1/[nH]c(=O)/c(=C/c2ccccc2)[nH]c1=O
- remaining at 1.5 h, 50 µM [1]: 39.9%
- remaining at 2.5 h, 50 µM [2]: 32.9%
- IC50 (Cytochrome P450 1A2): 1020 nM
- fraction unbound at 4 h, 2 µM [3]: 0.027
- Vd [4]: 16.2 L/kg
- CL (Rattus norvegicus): 64.617 mL/min/kg
- Drug uptake [5]: 4808.8 ng/mL/g
- Drug uptake [6]: 8281 ng/mL/g
- Drug uptake [7]: 1756.2 ng/mL/g
- Drug uptake [8]: 7146.9 ng/mL/g
- Drug uptake [9]: 6768.5 ng/mL/g
- Drug uptake [10]: 4220 ng/mL/g
- Drug uptake [11]: 567.3 ng/mL/g
- Drug uptake [12]: 1188.5 ng/mL/g
- Drug uptake [13]: 41048.8 ng/mL/g
- Drug uptake [14]: 88 ng/mL/g
- Drug uptake [15]: 144.8 ng/mL/g
- Drug uptake [16]: 68.2 ng/mL/g
- Drug uptake [17]: 36.1 ng/mL/g
- dose excreted at 8 h [18]: 0.11%
- dose excreted at 8 h [19]: 0.13%
- Activity (Mus musculus): 21.1 g
- inhibition in vivo at 9 mg/kg (NCI-H460 [20]): 58.7%
- inhibition in vivo at 3 mg/kg (NCI-H460 [21]): 46.9%
- inhibition (INH) (NCI-H460 [22]): 57.6%
